# Laboratory results reported in patent US6545182B2, “Methods and compositions for modulating alpha adrenergic receptor activity” (Allergan Sales, Inc., priority 2000, dated 2003).
# Columns and labels:
# Assay type in all cases: cell-based
# [1] = target: T1, alpha 2C adrenergic receptor (Homo sapiens, UniProt P18825); experiment: RSAT (Receptor Selection and Amplification Technology) assay, alpha 2C; conditions: for EC50: NIH-3T3 cells cotransfected with receptor and Gq/i5; for efficacy or intrinsic activity (value in parentheses) Alpha 2C: ratio of maximal effect to that of standard full agonist brimonidine
# T1 construct: expressed in transfected cells; host or cells: NIH-3T3 cells, transient cotransfection by calcium phosphate
# T1 sequence (P18825 1-462): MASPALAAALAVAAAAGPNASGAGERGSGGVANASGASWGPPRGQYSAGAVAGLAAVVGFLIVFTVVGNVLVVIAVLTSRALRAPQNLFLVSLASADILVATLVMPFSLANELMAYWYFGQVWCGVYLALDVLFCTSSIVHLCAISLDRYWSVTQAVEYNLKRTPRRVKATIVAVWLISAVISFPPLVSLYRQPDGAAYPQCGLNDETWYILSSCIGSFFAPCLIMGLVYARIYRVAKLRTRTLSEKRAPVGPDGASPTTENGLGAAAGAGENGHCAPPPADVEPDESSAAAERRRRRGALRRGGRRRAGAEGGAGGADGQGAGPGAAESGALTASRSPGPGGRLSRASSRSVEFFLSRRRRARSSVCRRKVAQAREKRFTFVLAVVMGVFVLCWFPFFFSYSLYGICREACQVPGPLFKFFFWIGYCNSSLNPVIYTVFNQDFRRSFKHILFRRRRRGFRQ
# Procedure: (§1) Activity was measured using the RSAT (Receptor Selection and Amplification Technology) assay, developed by Receptor Technologies, Inc. of Winooski, Vt. (now Acadia Pharmaceuticals of San Diego, Calif.), adapted for use with recombinant alpha2 adrenergic receptors in collaboration with Allergan. The assay measures receptor-mediated loss of contact inhibition that results in selective proliferation of receptor-containing cells in a mixed population of confluent cells. The increase in cell number is assessed with an appropriate transfected marker gene such as β-galactosidase, the activity of which can be easily measured in a 96-well format. Receptors that activate the G protein, Gq, elicit this response. Alpha2 receptors, which normally couple to Gi, activate the RSAT response when coexpressed with a hybrid Gq protein that has a Gi receptor recognition domain, called Gq/i5.
# (§2) The assay is conducted as follows. NIH-3T3 cells are plated at a density of 2×10^6 cells in 15 cm dishes and maintained in Dulbecco's modified Eagle's medium supplemented with 10% calf serum. One day later, cells are cotransfected by calcium phosphate precipitation with mammalian expression plasmids encoding p-SV-β-galactosidase (5-10 μg), receptor (1-2 μg) and G protein (1-2 μg). 40 μg salmon sperm DNA may also be included in the transfection mixture to increase transfection efficiency. Fresh media is added on the following day and 1-2 days later, cells are harvested and frozen in 50 assay aliquots. Transfectant cells are thawed and 100 μl added to 100 μl aliquots of various concentrations of drugs in triplicate in 96-well dishes. Incubations continue 72-96 hr at 37°. After washing with phosphate-buffered saline, β-galactosidase enzyme activity is determined by adding 200 μl of the chromogenic substrate (consisting of 3.5 mM o-nitrophenyl-β-D-galactopyranoside and 0.5% of the non-ionic surfactant nonidet P-40 in phosphate buffered saline), incubating overnight at 30° and measuring optical density at 420 nm. The absorbency is a measure of enzyme activity, which depends on cell number and reflects a receptor-mediated cell proliferation. The EC50 and maximal effect of each drug at each alpha2 receptor is determined. The efficacy or intrinsic activity is calculated as a ratio of the maximal effect of the drug to the maximal effect of a standard full agonist for each receptor subtype. Brimonidine, also called UK14304, is used as the standard agonist for the alpha2A, alpha2B and alpha2C receptors. The RSAT assay is also discussed in Messier et al. (1995) High throughput assays of cloned adrenergic, muscarinic, neurokinin and neurotrophin receptors in living mammalian cells, Pharmacol. Toxicol. 76:308-11; see also Conklin et al. (1993) Substitution of three amino acids switches receptor specificity of Gqα to that of Giα, Nature 363:274-6; Both of these papers are incorporated by reference herein.
# [2] = target: T2, alpha 2B adrenergic receptor (Homo sapiens, UniProt P18089); experiment: RSAT (Receptor Selection and Amplification Technology) assay, alpha 2B; conditions: for EC50: NIH-3T3 cells cotransfected with receptor and Gq/i5; for efficacy or intrinsic activity (value in parentheses) Alpha 2B: ratio of maximal effect to that of standard full agonist brimonidine
# T2 construct: expressed in transfected cells; host or cells: NIH-3T3 cells, transient cotransfection by calcium phosphate
# T2 sequence (P18089 1-450): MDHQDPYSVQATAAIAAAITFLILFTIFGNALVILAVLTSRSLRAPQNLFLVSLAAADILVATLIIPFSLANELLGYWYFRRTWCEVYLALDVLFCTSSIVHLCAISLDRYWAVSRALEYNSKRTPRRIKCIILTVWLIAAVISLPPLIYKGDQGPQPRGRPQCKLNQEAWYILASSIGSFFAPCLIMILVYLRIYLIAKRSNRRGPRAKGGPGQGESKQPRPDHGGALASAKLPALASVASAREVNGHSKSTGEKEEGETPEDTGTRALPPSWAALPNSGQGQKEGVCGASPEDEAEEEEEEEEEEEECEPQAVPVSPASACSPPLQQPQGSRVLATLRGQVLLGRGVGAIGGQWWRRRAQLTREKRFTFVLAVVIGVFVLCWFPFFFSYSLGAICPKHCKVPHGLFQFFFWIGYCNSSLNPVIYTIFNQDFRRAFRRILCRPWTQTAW
# Procedure: as §1, §2
# [3] = target: T3, alpha 2A adrenergic receptor (Homo sapiens, UniProt P08913); experiment: RSAT (Receptor Selection and Amplification Technology) assay, alpha 2A; conditions: for EC50: NIH-3T3 cells cotransfected with receptor and Gq/i5; for efficacy or intrinsic activity (value in parentheses) Alpha 2A: ratio of maximal effect to that of standard full agonist brimonidine
# T3 construct: expressed in transfected cells; host or cells: NIH-3T3 cells, transient cotransfection by calcium phosphate
# T3 sequence (P08913 1-465): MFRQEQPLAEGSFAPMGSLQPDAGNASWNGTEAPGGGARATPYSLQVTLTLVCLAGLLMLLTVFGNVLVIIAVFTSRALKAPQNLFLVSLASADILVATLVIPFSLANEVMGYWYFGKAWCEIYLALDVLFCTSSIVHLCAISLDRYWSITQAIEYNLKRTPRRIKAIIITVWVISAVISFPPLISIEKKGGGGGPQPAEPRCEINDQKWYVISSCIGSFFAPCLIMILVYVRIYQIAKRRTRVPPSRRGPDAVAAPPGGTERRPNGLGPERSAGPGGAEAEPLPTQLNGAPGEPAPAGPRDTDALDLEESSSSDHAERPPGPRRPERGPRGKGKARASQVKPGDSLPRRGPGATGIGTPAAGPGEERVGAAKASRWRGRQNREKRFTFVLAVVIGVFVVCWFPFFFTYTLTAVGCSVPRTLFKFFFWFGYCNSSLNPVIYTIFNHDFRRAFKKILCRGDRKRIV
# Procedure: as §1, §2
SMILES,EC50 [1],EC50 [2],efficacy or intrinsic activity (value in parentheses) Alpha 2B [2],EC50 [3],efficacy or intrinsic activity (value in parentheses) Alpha 2C [1],efficacy or intrinsic activity (value in parentheses) Alpha 2A [3]
OCCNC(=S)NCc1cccc(C(F)(F)F)c1,≥ 210000 nM,495 nM,0.73,≥ 210000 nM,,
OCCNC(=S)NCc1cccc(OC(F)(F)F)c1,≥ 210000 nM,2390 nM,0.55,≥ 210000 nM,,
Cc1ccccc1CNC(=S)NCCO,≥ 210000 nM,174 nM,0.7,≥ 210000 nM,,
Cc1cccc(CNC(=S)NCCO)c1,602 nM,913 nM,0.9,≥ 210000 nM,0.3,
Cc1ccc(CNC(=S)NCCO)cc1,1810 nM,59 nM,0.6,≥ 210000 nM,0.4,
COc1cccc(CNC(=S)NCCO)c1,≥ 210000 nM,898 nM,0.40,≥ 210000 nM,,
OCCNC(=S)NCc1ccc(F)c(Cl)c1,≥ 210000 nM,99 nM,0.6,≥ 210000 nM,,
CCOc1ccccc1CNC(=S)NCCO,28 nM,42 nM,0.7,≥ 210000 nM,0.4,
OCCNC(=S)NCc1ccc(F)cc1Cl,≥ 210000 nM,579 nM,0.75,≥ 210000 nM,,
OCCNC(=S)NCc1c(F)cccc1Cl,≥ 210000 nM,174 nM,0.55,≥ 210000 nM,,
OCCNC(=S)NCc1cccc(C(F)(F)F)c1F,632 nM,37 nM,0.7,≥ 210000 nM,0.3,
OCCNC(=S)NCc1ccccc1Br,273 nM,10 nM,0.8,≥ 210000 nM,0.4,
OCCNC(=S)NCc1cccc(Br)c1,≥ 210000 nM,14 nM,0.9,295 nM,,0.3
OCCNC(=S)NCc1cccc(Cl)c1,≥ 210000 nM,16 nM,0.7,≥ 210000 nM,,
OCCNC(=S)NCc1cccc(Cl)c1Cl,54.5 nM,3 nM,0.99,≥ 210000 nM,0.33,
OCCNC(=S)NCc1cccc(Br)c1F,41 nM,5.5 nM,1.03,136 nM,0.88,0.52

SMILES,EC50 [1],EC50 [2],efficacy or intrinsic activity (value in parentheses) Alpha 2B [2],EC50 [3],efficacy or intrinsic activity (value in parentheses) Alpha 2C [1],efficacy or intrinsic activity (value in parentheses) Alpha 2A [3]
OCCNC(=S)NCc1c(F)ccc(Cl)c1F,> 2000 nM,98 nM,0.83,≥ 210000 nM,,
COc1ccc(Cl)cc1CNC(=S)NCCO,175 nM,19 nM,1.09,380 nM,0.53,0.33
COc1c(F)cccc1CNC(=S)NCCO,843 nM,169 nM,0.95,≥ 210000 nM,0.38,
OCCNC(=S)NCc1cc(Br)ccc1F,459 nM,36 nM,0.97,≥ 210000 nM,0.58,
OCCNC(=S)NCc1cc(F)ccc1Br,137 nM,20 nM,1.0,≥ 210000 nM,0.63,
COc1cccc(CNC(=S)NCCO)c1F,> 3000 nM,429 nM,1.04,> 2000 nM,,
Cc1cc(Cl)cc(CNC(=S)NCCO)c1F,181 nM,37.5 nM,1.02,≥ 210000 nM,0.62,
OCCNC(=S)NCc1ccc(F)c(F)c1F,≥ 210000 nM,482 nM,0.76,≥ 210000 nM,,
OCCNC(=S)NCc1c(F)cc(F)c(Cl)c1F,≥ 210000 nM,281 nM,0.58,≥ 210000 nM,,
Cc1ccc(Br)c(CNC(=S)NCCO)c1F,> 3000 nM,115 nM,0.8,≥ 210000 nM,,
Cc1cc(Br)c(F)c(CNC(=S)NCCO)c1,819 nM,22 nM,0.73,> 2000 nM,0.56,
Cc1cc(Br)cc(CNC(=S)NCCO)c1F,1490 nM,240 nM,0.8,≥ 210000 nM,0.37,
OCCNC(=S)NCc1c(Br)ccc(I)c1F,≥ 210000 nM,70 nM,0.49,≥ 210000 nM,,
OCCNC(=S)NCc1ccc(F)c(Br)c1F,786 nM,138 nM,1.01,≥ 210000 nM,0.66,
OCCNC(=S)NCc1c(Br)ccc(F)c1F,≥ 210000 nM,48 nM,0.60,≥ 210000 nM,,
